# Laboratory results: PubChem BioAssay (NCI)
# Several values for one entry are separate records, joined by “and”; a condition that tells them apart may be missing. Identical values can stand only once.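 48-hour exposure; five concentrations; linearly interpolated endpoints. GI50 = concentration required for 50% inhibition of growth. TGI is the concentration that stops growth completely.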
# Assays:
# Test in all cases: NCI-60 cell line screen, 48 h
# SW-620 colon = tested on: SW-620 colon
# MDA-MB-231 breast = tested on: MDA-MB-231 breast
# HCT-15 colon = tested on: HCT-15 colon
# A549 NSCLC = tested on: A549 NSCLC
# SF-295 CNS = tested on: SF-295 CNS
# SK-OV-3 ovarian = tested on: SK-OV-3 ovarian
# HS 578T breast = tested on: HS 578T breast
# OVCAR-4 ovarian = tested on: OVCAR-4 ovarian
# DMS 114 small cell lung = tested on: DMS 114 small cell lung
# HOP-18 NSCLC = tested on: HOP-18 NSCLC
Compound,GI50 (SW-620 colon) [µM],TGI (SW-620 colon) [µM],GI50 (MDA-MB-231 breast) [µM],TGI (MDA-MB-231 breast) [µM],GI50 (HCT-15 colon),TGI (HCT-15 colon) [µM],GI50 (A549 NSCLC),TGI (A549 NSCLC) [µM],GI50 (SF-295 CNS),TGI (SF-295 CNS) [µM],GI50 (SK-OV-3 ovarian) [µM],TGI (SK-OV-3 ovarian) [µM],GI50 (HS 578T breast),GI50 (OVCAR-4 ovarian),TGI (OVCAR-4 ovarian) [µM],TGI (HS 578T breast) [µM],TGI (DMS 114 small cell lung) [µM],TGI (HOP-18 NSCLC) [µM]
COc1ccccc1NC(=O)c1cc2cc(Br)ccc2cc1O,3.12,11.1,2.05,5.69,2.37 µM,8.54,2.65 µM,7.71,2.31 µM,7.59,1.75,6.08,2.61 µM,3.11 µM,21.4,–,–,–
O=C(O)C(Cl)Cl,> 10000,> 10000,> 10000,> 10000,6680 µM and > 10000 µM,> 10000,7560 µM and > 10000 µM,> 10000,4230 µM and > 10000 µM,> 10000,> 10000,> 10000,3090 µM and > 10000 µM,3300 µM and 8520 µM,> 10000,> 10000,–,–
N#CCCC[Si]12OCCN(CCO1)CCO2,–,> 100,–,–,–,–,–,> 100,–,> 100,–,> 100,–,–,–,–,> 100,> 100
O=C1c2c(F)c(F)c(F)c(F)c2C(=O)N1c1ccc(F)cc1F,2.11,7.22,5.53,19.5,2.57 µM,7.43,16.3 µM,34.7,13.7 µM,46.4,20.7,50.2,35.5 µM,16.9 µM,53.3,> 100,–,–
COc1ccc(CN2C(=O)C(Cl)=C(Nc3cccc(C(F)(F)F)c3)C2=O)cc1,3.61,15.7,3.39,18,3.69 µM,17.6,8.54 µM,> 100,3.19 µM,65.3,8.67,62.2,3.14 µM,4.74 µM,30.6,13.1,–,–
C/C=C/[C@@H]1O[C@@H]2COC(=O)C2=C[C@@H]1O,2.13,5.07,19.6,39.7,16.9 µM,39.8,20.6 µM,40.4,29.9 µM,> 56.4,25.9,> 58.4,23.4 µM,16.1 µM,42.8,58.2,–,–
CN1CCN(c2ccc(Nc3ncc(Cl)c(NC[C@@H]4CCCO4)n3)cc2)CC1,0.538,> 100,1.62,8.29,2.04 µM,> 100,1.05 µM,5.5,1.26 µM,26.3,2.63,63.8,1.32 µM,3.03 µM,81.7,11.2,–,–
Br[Se]c1ccccn1,–,51.4,–,31.5,–,38.4,–,44.3,–,17,–,34.8,–,–,30.9,40.3,–,–
O=C1CSC(=S)N1/N=C/c1ccc(Cl)c([N+](=O)[O-])c1,–,> 100,–,48,–,42.1,–,> 100,–,68.5,–,> 100,–,–,50.7,> 100,–,–
CC(=O)OC1(C)N=NC2(CCCCC2)O1 (stereo not given),–,> 100,–,> 100,–,> 100,–,> 100,–,> 100,–,> 100,–,–,> 100,> 100,–,–
COCCn1cc(-c2nc(-c3cc4cccnc4[nH]3)cs2)c2cc(OC)ccc21,4.04,> 100,1.76,> 79.9,2.26 µM,21.5,3.79 µM,> 100,2.24 µM,6.54,3.04,11.6,1.99 µM,0.0278 µM,> 30.8,6.78,–,–
Cc1cc2c(cc1C)[n+](=O)c(C(=O)c1ccccc1)c(C(F)F)n2[O-],21.2,> 100,30.4,> 100,6.76 µM,> 100,4.9 µM,27.4,7.27 µM,42.5,54.5,> 100,32 µM,14.2 µM,> 100,> 100,–,–
CC(C)[C@@H]1NC(=O)[C@]2(C)CSC(=N2)c2ccnc(c2)CNC(=O)C[C@@H](/C=C/CCS)OC1=O,0.448,7.65,0.472,> 100,9.1 µM,> 100,0.0635 µM,1.33,0.0623 µM,0.322,0.0354,0.197,0.0407 µM,1.41 µM,> 100,–,–,–
C=C1C[C@H](O)[C@H](Br)C(C)(C)[C@@]12CCC(C)=C(Cl)C2,0.625,11.3,0.345,2.33,0.269 µM,1.27,0.261 µM,1.96,0.105 µM,1.69,0.297,6.41,0.289 µM,0.155 µM,7.81,2.98,–,–
CC(=O)N[C@@H](Cc1ccc(OP(=O)(O)O)cc1)C(=O)N[C@H]1CCC(=O)N2CCC[C@@H](C(=O)Nc3cccc4ccccc34)N2C1=O,> 25,> 25,> 25,> 25,> 25 µM,> 25,> 25 µM,> 25,> 25 µM,> 25,> 25,> 25,> 25 µM,> 25 µM,> 25,> 25,–,–
NC(=S)N/N=C1\c2cc(Cl)ccc2-c2c1cc(Cl)cc2[N+](=O)[O-],10.7,> 100,3.85,34.9,4.33 µM,> 100,4.05 µM,> 100,3.57 µM,73.7,9.4,> 100,18.8 µM,1.92 µM,8.35,> 100,–,–
